From ChEMBL document CHEMBL3430912, “GSK Tres Cantos Anti-Kinetoplastid Screening (TCAKS) Data”

Legend:
[1] = GSK_TCAKS: pIC50 HepG2 human cell line viability assay using luminiscence. […] Seeding density was checked to ensure that new mono-layers were not more than 50% confluent at the time of harvesting. Cell suspension was added to 500 mL of the same medium at a final density of 1.2 * 10^5 cells/mL. This cell suspension was dispensed (25 uL, 3000 cells per well) into 384-well clear-bottom plates using a Multidrop Combi dispenser. Prior to addition of the cell suspension, the screening compounds (250 nL) were pre-dispensed into the plates with an Echo liquid handler. Plates were incubated for 48 h at 37C, 5% CO2. After incubation, plates equilibrated at room temperature for 30 min before proceeding to develop the luminescent signal. The signal developer, CellTiter-Glo Reagent, was allowed to equilibrate at room temperature for 30 min and added to the plates (25uL per well) using a Multidrop Combi dispenser. Plates were left for 10 min at room temperature for stabilization and then read using a ViewLux.; format: toxicity, cell-based
[2] = target: Sterol 14-alpha demethylase (Trypanosoma cruzi (strain CL Brener), UniProt Q7Z1V1); test: GSK_TCAKS: pIC50 CYP51 from Trypanosoma cruzi.; format: functional
[3] = tested on: Trypanosoma cruzi; test: (§1) GSK_TCAKS: pIC50 Trypanosoma cruzi Imaging: Amastigotes/Cell. […] Cells were then washed once with PBS before infection. T. cruzi trypomastigotes, collected at days 5 to 8 after infection from LLC-MK2 parasite infected cultures, were allowed to swim out for 4h at 37C from a centrifuged pellet (2,500 rpm/10 min/room temperature). Trypomastigotes were then collected and counted in a CASY Cell Counter. Trypomastigotes, in supplemented DMEM, were added to H9c2 cultures in a multiplicity of infection of 1 and incubated for 18 h. Cells were washed once with PBS before incubation of the infected H9c2 monolayer with trypsin (Life-Technologies) to detach cells from the flask. Cells were counted in a CASY Cell Counter using a 150 um capillary and their density set at 5 * 10^4 cells per mL in supplemented assay DMEM. Infected H9c2 were dispensed into 384-well poly-lysine coated assay plates at 50uL per well using a Multidrop Combi dispenser. After seeding them, the plates were incubated at 37C, 5% CO2 for 72h. Cultures were then fixed and stained by addition of 50 uL of a solution containing 8% formaldehyde and 4 uM DRAQ5 DNA dye (BioStatus, UK) per well. […] Five images were collected per well for reliable statistical analysis. Automated image analysis was performed with a script developed on Acapella High Content Imaging and Analysis Software (PerkinElmer). Output: number of amastigotes per cell as infection level measurement.; format: functional, organism-based, Rattus norvegicus; details: H9c2, 4 h
[4] = tested on: Leishmania donovani; test: (§2) GSK_TCAKS: pIC50 Leishmania donovani Imaging: Amastigotes/Macrophages. Assay plates (384-well) were prepared by adding 250nL of compound to each well. For single shot assay, the final compound concentration was 5 uM. […] Automated image analysis was performed with a script developed on Acapella High Content Imaging and Analysis Software (PerkinElmer). Output: Average number of amastigotes per macrophage cell were reported for each well.; format: functional, organism-based, Homo sapiens; details: THP-1
[5] = tested on: Trypanosoma cruzi; test: GSK_TCAKS: pIC50 Trypanosoma cruzi viability assay using beta-GAL activity. This assay was run at single shot at 5uM compound concentration per well. The biological reagents consisted of NIH-3T3 host cells and trypomastigotes parasitic cells; both cell types were set to a 3.3 * 10^5 cells/mL dilution in assay DMEM by means of a CASY cell counter device using a 60um capillary. 6 uL of the mixture were dispensed per well (about 1 * 10^3 host-cells and 1 * 10^3 parasites) with a Multidrop Combi dispenser. […] In all wells, the percentage of DMSO never exceeded 0.5%. Plates incubated for four days at 37C, 5% CO2. The substrate used for the assay fluorescence intensity (FLINT) readout was resorufin-beta-D-galactopiranoside (Sigma-Aldrich) at 5uM per well. It was diluted in PBS supplemented with the soft detergent Igepal (Fluka).; format: functional, organism-based, Mus musculus; details: Tulahuen, NIH3T3
[6] = tested on: Leishmania donovani; test: as §2, with “Infected Macrophages.” for “Amastigotes/Macrophages.”, “Percent” for “Average number”, “infected” for “amastigotes per”, “cells” for “cell”; format: functional, organism-based, Homo sapiens; details: THP-1
[7] = tested on: Trypanosoma cruzi; test: as §1, with “H2C9” for “Trypanosoma cruzi”, “H9c2 Host Cardiomyocytes.” for “Amastigotes/Cell.”, “Number” for “number”, “H9c2 Host Cardiomyocytes nuclei to determine drug-related cytotoxicity.” for “amastigotes per cell as infection level measurement.”; format: functional, organism-based, Rattus norvegicus; details: H9c2, 4 h
[8] = tested on: Trypanosoma brucei brucei; test: GSK_TCAKS: pIC50 Trypanosoma brucei viability assay using fluorescence intensity. Assay plates (1536-well) were prepared by dispensing 25nL of compound solution per well using an Echo acoustic dispenser (Labcyte).; format: functional, organism-based; details: Lister 427, 2 h
[9] = tested on: Trypanosoma brucei brucei; test: GSK_TCAKS: pIC50 Trypanosoma brucei viability assay using luminiscence. Assay plates (1536-well) were prepared. T. brucei cultures were harvested and counted in a CASY cell counter. A parasite suspension was prepared at a final concentration of 5 * 10^4 cells/mL in complete HMI9 medium and 6uL was dispensed to all wells containing compounds using a Multidrop Combi dispenser. 6uL of HMI9 media with 0.4% DMSO were dispensed to control columns. Plates were incubated for 24 h at 37C, 5% CO2 then tempered for 10 min at room temperature. ATP content was quantified by adding 4 uL of CellTiter-Glo Reagent (Promega) according to the manufacturer's instructions. Luminescence was measured using a ViewLux.; format: functional, organism-based; details: Lister 427, CASY
[10] = tested on: Leishmania donovani; test: as §2, with “THP-1 Host Macrophages.” for “Amastigotes/Macrophages.”, “THP-1” for “Average number of amastigotes per macrophage”, “cell count” for “cell”; format: functional, organism-based, Homo sapiens
[11] = tested on: Leishmania donovani; test: GSK_TCAKS: pIC50 Leishmania donovani viability assay using fluorescence intensity. Assay plates (1536-well) were prepared by adding 30nL per well of compound. For single shot assay, the final compound concentration was 5uM. […] Briefly, eGFP LdBOB axenic amastigotes were harvested, fixed and counted in a CASY cell counter (Roche-Applied Science). A final concentration of 1.5 * 10^5 cells per well were prepared in amastigote media containing 500 U/mL penicillin/streptomycin (Invitrogen) and 6uL was dispensed to each experimental well using a Multidrop Combi dispenser (Thermo Scientific). 6uL of assay media was dispensed to control columns used as reference for 100% compound response. Following incubation for 72 h at 37C, 5% CO2, 2 uL of resazurin was added to each well at a final concentration of 0.5 mM in phosphate buffered saline (PBS) with IGEPAL (Sigma-Aldrich), 0.05% (v/v).; format: functional, organism-based
[12] = tested on: NIH3T3; test: GSK_TCAKS: pIC50 NIH 3T3 cell line viability assay using luminiscence. Tissue culture surface treated assay plates (1536-well) were used. […] The 100% cells survival control was determined exposing the host-cells to a 0.5% DMSO concentration, whereas the 100% toxicity control was achieved by seeding the cells in presence of Amphotericin B at 50uM. Plates were incubated for four days at 37C, 5% CO2. The assay readout was developed by addition of 5uL of CellTiter-Glo Reagent following the manufacturer's instructions. Luminiscence was measured using a ViewLux.; format: functional, cell-based; details: Mus musculus, NIH3T3, 96 h
[13] = tested on: Trypanosoma cruzi; test: GSK_TCAKS: pIC50 Trypanosoma cruzi Imaging: Infected Cells. […] Cells were then washed once with PBS before infection. T. cruzi trypomastigotes, collected at days 5 to 8 after infection from LLC-MK2 parasite infected cultures, were allowed to swim out for 4h at 37C from a centrifuged pellet (2,500 rpm/10 min/room temperature). Trypomastigotes were then collected and counted in a CASY Cell Counter. Trypomastigotes, in supplemented DMEM, were added to H9c2 cultures in a multiplicity of infection of 1 and incubated for 18 h. Cells were washed once with PBS before incubation of the infected H9c2 monolayer with trypsin (Life-Technologies) to detach cells from the flask. Cells were counted in a CASY Cell Counter using a 150 um capillary and their density set at 5 * 10^4 cells per mL in supplemented assay DMEM. Infected H9c2 were dispensed into 384-well poly-lysine coated assay plates at 50uL per well using a Multidrop Combi dispenser. After seeding them, the plates were incubated at 37C, 5% CO2 for 72h. Cultures were then fixed and stained by addition of 50 uL of a solution containing 8% formaldehyde and 4 uM DRAQ5 DNA dye (BioStatus, UK) per well. […] Five images were collected per well for reliable statistical analysis. Automated image analysis was performed with a script developed on Acapella High Content Imaging and Analysis Software (PerkinElmer). Output: percentage of infected cells per well as a second infection marker.; format: functional, organism-based, Rattus norvegicus; details: H9c2, 4 h

Chain of Sterol 14-alpha demethylase (Q7Z1V1 whole entry): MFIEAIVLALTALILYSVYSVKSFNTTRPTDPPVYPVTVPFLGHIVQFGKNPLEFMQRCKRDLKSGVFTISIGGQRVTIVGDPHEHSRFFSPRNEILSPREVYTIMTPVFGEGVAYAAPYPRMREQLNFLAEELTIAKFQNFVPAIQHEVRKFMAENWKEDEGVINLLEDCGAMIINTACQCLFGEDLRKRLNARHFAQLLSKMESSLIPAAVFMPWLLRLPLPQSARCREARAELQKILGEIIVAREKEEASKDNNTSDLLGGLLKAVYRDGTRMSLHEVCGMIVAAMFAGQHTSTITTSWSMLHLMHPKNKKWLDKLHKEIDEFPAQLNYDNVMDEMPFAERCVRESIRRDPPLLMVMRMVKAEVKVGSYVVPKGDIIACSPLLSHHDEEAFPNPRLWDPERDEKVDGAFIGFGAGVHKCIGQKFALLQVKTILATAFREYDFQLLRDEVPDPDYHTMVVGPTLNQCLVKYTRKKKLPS

O=c1ccc2ccc(F)c3c2n1C[C@H]3CN1CCC(NCc2cc3ccccc3o2)CC1
IC50 at 48 h [1]: 39.8 µM
IC50 [2]: 31.6 µM
IC50 [3]: 0.126 µM
IC50 [4]: 12.6 µM
IC50 [5]: 0.398 µM
IC50 [6]: 20 µM
IC50 [7]: 31.6 µM
IC50 [8]: 0.631 µM
IC50 [9]: 2 µM
IC50 [10]: 31.6 µM
IC50 [11]: 15.8 µM
IC50 [12]: 20 µM
IC50 [13]: 0.2 µM

CS(=O)(=O)N[C@H]1CC[C@@H](Oc2cc3cnccc3cc2-c2ccsc2)CC1
IC50 at 48 h [1]: 63.1 µM
IC50 [2]: 0.0251 µM
IC50 [3]: 0.1 µM
IC50 [4]: 20 µM
IC50 [5]: 0.126 µM
IC50 [6]: 50.1 µM
IC50 [7]: > 50.1 µM
IC50 [8]: 15.8 µM
IC50 [9]: > 39.8 µM
IC50 [10]: 15.8 µM
IC50 [11]: 31.6 µM
IC50 [12]: 15.8 µM
IC50 [13]: 0.158 µM

Cc1c(C(=O)NCCCCn2ccnc2)oc2c(C)cccc12
IC50 at 48 h [1]: 79.4 µM
IC50 [2]: 0.1 µM
IC50 [3]: 0.501 µM
IC50 [4]: > 50.1 µM
IC50 [5]: 0.224 µM
IC50 [6]: > 50.1 µM
IC50 [7]: > 50.1 µM
IC50 [8]: 20 µM
IC50 [9]: > 39.8 µM
IC50 [10]: > 50.1 µM
IC50 [11]: > 50.1 µM
IC50 [12]: 31.6 µM
IC50 [13]: 0.501 µM

Cc1ccc2ccc(C(Nc3ccccn3)c3cccnc3)c(O)c2n1 (stereo not given)
IC50 at 48 h [1]: 20 µM
IC50 [2]: 0.0501 µM
IC50 [3]: 0.2 µM
IC50 [4]: 7.94 µM
IC50 [5]: 0.501 µM
IC50 [6]: 12.6 µM
IC50 [7]: 31.6 µM
IC50 [8]: 5.01 µM
IC50 [9]: 3.98 µM
IC50 [10]: > 50.1 µM
IC50 [11]: 0.398 µM
IC50 [12]: 10 µM
IC50 [13]: 0.2 µM

COc1ccccc1C=CCN1C[C@H]2CCC[C@@H](C1)C2(O)c1cccnc1 (stereo not given in full)
IC50 at 48 h [1]: > 100 µM
IC50 [2]: 0.126 µM
IC50 [3]: 0.0398 µM
IC50 [4]: 31.6 µM
IC50 [5]: 0.0501 µM
IC50 [6]: > 50.1 µM
IC50 [7]: > 50.1 µM
IC50 [8]: > 39.8 µM
IC50 [9]: > 39.8 µM
IC50 [10]: 39.8 µM
IC50 [11]: > 50.1 µM
IC50 [12]: 31.6 µM
IC50 [13]: 0.0398 µM

COc1ccc(C(=O)Nc2cc(C(F)(F)F)ccc2N2CCOCC2)c(OC)c1
IC50 at 48 h [1]: > 100 µM
IC50 [2]: > 100 µM
IC50 [3]: 0.316 µM
IC50 [4]: 7.94 µM
IC50 [5]: 1 µM
IC50 [6]: 10 µM
IC50 [7]: > 50.1 µM
IC50 [8]: 10 µM
IC50 [9]: 25.1 µM
IC50 [10]: 12.6 µM
IC50 [11]: 5.01 µM
IC50 [12]: 31.6 µM
IC50 [13]: 0.794 µM

COc1ccc(NS(=O)(=O)c2cc(NC(=O)Cc3ccc(C)cc3)ccc2N2CCOCC2)cc1
IC50 at 48 h [1]: > 100 µM
IC50 [2]: > 100 µM
IC50 [3]: 2.51 µM
IC50 [4]: > 50.1 µM
IC50 [5]: 2 µM
IC50 [6]: > 50.1 µM
IC50 [7]: > 50.1 µM
IC50 [8]: 5.01 µM
IC50 [9]: 7.94 µM
IC50 [10]: > 50.1 µM
IC50 [11]: 39.8 µM
IC50 [12]: 25.1 µM
IC50 [13]: 5.01 µM

NC(=O)c1ccccc1Nc1nc(NC2CCCCC2)nc2[nH]ccc12
IC50 at 48 h [1]: 20 µM
IC50 [2]: > 100 µM
IC50 [3]: 1 µM
IC50 [4]: 12.6 µM
IC50 [5]: 1 µM
IC50 [6]: 12.6 µM
IC50 [7]: 25.1 µM
IC50 [8]: 0.501 µM
IC50 [9]: 10 µM
IC50 [10]: 10 µM
IC50 [11]: 20 µM
IC50 [12]: 25.1 µM
IC50 [13]: 1 µM

CCCCn1nnnc1CSc1nc(C)cc(C)c1C#N
IC50 at 48 h [1]: > 100 µM
IC50 [2]: 50.1 µM
IC50 [3]: 0.1 µM
IC50 [4]: 3.16 µM
IC50 [5]: 0.316 µM
IC50 [6]: 3.98 µM
IC50 [7]: > 50.1 µM
IC50 [8]: > 39.8 µM
IC50 [9]: > 39.8 µM
IC50 [10]: > 50.1 µM
IC50 [11]: 1.26 µM
IC50 [12]: > 50.1 µM
IC50 [13]: 0.2 µM

O=C(CSc1ccc(F)cc1)N[C@@H](Cc1c[nH]cn1)C(=O)NCCc1ccccc1
IC50 at 48 h [1]: > 100 µM
IC50 [2]: 0.0794 µM
IC50 [3]: 0.501 µM
IC50 [4]: > 50.1 µM
IC50 [5]: 0.447 µM
IC50 [6]: > 50.1 µM
IC50 [7]: > 50.1 µM
IC50 [8]: > 39.8 µM
IC50 [9]: > 39.8 µM
IC50 [10]: > 50.1 µM
IC50 [11]: > 50.1 µM
IC50 [12]: 12.6 µM
IC50 [13]: 0.501 µM
